Test results published in ChEMBL document CHEMBL1921693, “Efficient synthesis and in vitro antitubercular activity of 1,2,3-triazoles as inhibitors of Mycobacterium tuberculosis” (2011).
Values after ≈ are worked out from the molar mass of the structure shown.

System: Mycobacterium tuberculosis
Experiment: Ratio of ethambutol MIC to compound MIC for Mycobacterium tuberculosis H37Rv
Format: functional

| Structure (SMILES) | Ratio |
| --- | --- |
| CCOC(=O)c1nnn(CC(=O)c2ccc(Br)cc2)c1C(=O)OCC | 2.08 |

System: Mycobacterium tuberculosis
Experiment: Antituberculosis activity against Mycobacterium tuberculosis H37Rv by agar dilution method
Format: functional

| Structure (SMILES) | MIC [µg/mL] |
| --- | --- |
| CCOC(=O)c1nnn(CC(=O)OC)c1C(=O)OCC | > 25 |
| CCOC(=O)Cn1nnc(C(=O)OC)c1C(=O)OC | > 25 |
| COC(=O)c1nnn(CC(=O)c2ccc(OC)cc2)c1C(=O)OC | 12.5 (≈ 37.5 µM) |
| COC(=O)c1nnn(CC(=O)c2ccc(Br)cc2)c1C(=O)OC | 3.13 (≈ 8.19 µM) |
| CCOC(=O)c1nnn(CC(=O)c2ccccc2)c1C(=O)OCC | 3.13 (≈ 9.45 µM) |
| NNC(=O)c1ccncc1 [ISONIAZID] | 0.75 (≈ 5.47 µM) |
| CC[C@@H](CO)NCCN[C@@H](CC)CO [ETHAMBUTOL] | 3.25 (≈ 15.9 µM) |
| CCOC(=O)c1nnn(Cc2ccccc2)c1C(=O)OCC | 12.5 (≈ 41.2 µM) |
| CCOC(=O)Cn1nnc(C(=O)OCC)c1C(=O)OCC | > 25 |
| COC(=O)c1nnn(CC(=O)c2ccccc2)c1C(=O)OC | 12.5 (≈ 41.2 µM) |
| COC(=O)Cn1nnc(C(=O)OC)c1C(=O)OC | > 25 |
| CCOC(=O)c1nnn(CC(=O)c2ccc(Br)cc2)c1C(=O)OCC | 1.56 (≈ 3.8 µM) |
| CCOC(=O)c1nnn(CC(=O)c2ccc(OC)cc2)c1C(=O)OCC | 6.25 (≈ 17.3 µM) |
| COC(=O)c1nnn(CC(=O)c2ccc(Cl)cc2)c1C(=O)OC | 6.25 (≈ 18.5 µM) |
| CCOC(=O)c1nnn(CC(=O)c2ccc(Cl)cc2)c1C(=O)OCC | 3.13 (≈ 8.56 µM) |
| COC(=O)c1nnn(Cc2ccccc2)c1C(=O)OC | 25 (≈ 90.8 µM) |
